For series [1] the following is noted: serum of subjects tested; cited from earlier work.
A further series has as its target GSK3B (Homo sapiens, UniProt P49841). Particulars: in neutrophils; cited from earlier work.
Series [2] has as its system MSU-induced gout in the rat ankle. Particulars: for KC-GRO (KC/GRO) level: synovial fluid, eight hours post MSU-induced gout.
The test system is the same in series [3]. The following applies: photomicrograph at 2-times magnification after topical administration. An excerpt:
It was anticipated that the pathology may bring additional clarity to show lithium carbonate's action on the cytokine storm. Rat ankle samples banked in formalin were sent for microscopic analysis.

The conditions of series [4]: applied to the epithelium of the skin, gout model.
Source text: Once that occurred, the lithium acted on the tissues and blood vessels surrounding the joint, preventing the entry of the inflammatory cells into the joint.
[5] abbreviates: BRT rat MSU model, eight hours post MSU, topical application.

Like-named read-outs stand apart in the source and are kept apart here. Some results are limits rather than exact numbers.

GSK3B, sequence (P49841 whole entry, species assumed): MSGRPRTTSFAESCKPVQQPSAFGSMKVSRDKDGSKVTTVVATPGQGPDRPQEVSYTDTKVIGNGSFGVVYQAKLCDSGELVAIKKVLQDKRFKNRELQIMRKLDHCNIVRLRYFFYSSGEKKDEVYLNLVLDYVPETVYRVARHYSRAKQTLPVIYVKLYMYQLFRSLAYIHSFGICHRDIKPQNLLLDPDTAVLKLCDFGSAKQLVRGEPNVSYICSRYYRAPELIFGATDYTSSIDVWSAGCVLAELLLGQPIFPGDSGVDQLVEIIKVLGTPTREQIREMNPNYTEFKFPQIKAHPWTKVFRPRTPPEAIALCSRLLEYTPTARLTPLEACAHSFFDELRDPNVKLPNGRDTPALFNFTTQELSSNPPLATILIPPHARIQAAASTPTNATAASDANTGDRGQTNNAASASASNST

As to `O=C([O-])[O-].[Li+].[Li+]` [lithium carbonate], in series [1], the IL-1β in serum entry is on record as “consistent increase”, the IL-6 in serum entry is “consistent increase” and the TNF-α in serum entry is “consistent increase”. Besides, the “Increase of TNF-α protein synthesis” value at GSK3B was greater than 3 fold. In series [2] (setting [5]), the IL-1β level entry is on record as “induction”, the IL-6 level entry is recorded as “induction” and the TNF-α level entry is recorded as “induction”. Besides, in series [2] (rat ankle, topical application), the “KC-GRO (KC/GRO) level” value is given as “Attenuation”. The “KC-GRO (KC/GRO) level” value in series [2] (rat ankle, topical application, listed as lithium) is listed as “surprisingly lessened”. Moreover, the Effect on gout result in series [2] (topical application of 2% lithium carbonate, rat ankle) is on record as “attenuated gout”. Moreover, in series [3], the Edema result was “minimal edema”, the “Raft of white blood cells” value was “only a very small raft of white blood cells” and the Synovial hypertrophy entry is “minimal synovial hypertrophy”. Also, the “Penetration of skin epithelium” value in series [4] is “penetrated to the synovium”.

The values are drawn from patent US11850259B2, “Methods of treating viral infections affecting the respiratory tract using topically administered lithium agents” (United States Government as Represented by the Department …, priority 2020, dated 2023).
